Columns and labels:
Type in all cases: functional
BT-549 = assay: Cytotoxicity against human BT549 cells assessed as growth inhibition
[1] = Cytotoxicity against human OVCAR8 cells assessed as growth inhibition; conditions: OVCAR-8
TK-10 = assay: Cytotoxicity against human TK10 cells assessed as growth inhibition
[2] = Cytotoxicity against human UO31 cells assessed as growth inhibition; conditions: UO-31
[3] = Cytotoxicity against human OVCAR5 cells assessed as growth inhibition; conditions: OVCAR-5
ACHN = assay: Cytotoxicity against human ACHN cells assessed as growth inhibition
MDA-MB-231 = assay: Cytotoxicity against human MDA-MB-231 cells assessed as growth inhibition
SR = assay: Cytotoxicity against human SR cells assessed as growth inhibition
HCT-116 = assay: Cytotoxicity against human HCT116 cells assessed as growth inhibition
M14 = assay: Cytotoxicity against human M14 cells assessed as growth inhibition
Malme-3M = assay: Cytotoxicity against human MALME-3M cells assessed as growth inhibition
SW-620 = assay: Cytotoxicity against human SW620 cells assessed as growth inhibition
SNB-19 = assay: Cytotoxicity against human SNB19 cells assessed as growth inhibition
[4] = Cytotoxicity against human NCI-ADR-RES cells assessed as growth inhibition
MDA-MB-435 = assay: Cytotoxicity against human MDA-MB-435 cells assessed as growth inhibition
KM12 = assay: Cytotoxicity against human KM12 cells assessed as growth inhibition
NCI-H522 = assay: Cytotoxicity against human NCI-H522 cells assessed as growth inhibition
CCRF-CEM = assay: Cytotoxicity against human CCRF-CEM cells assessed as growth inhibition
[5] = Cytotoxicity against human OVCAR4 cells assessed as growth inhibition; conditions: OVCAR-4
HT-29 = assay: Cytotoxicity against human HT-29 cells assessed as growth inhibition
[6] = Cytotoxicity against human Hs 578T cells assessed as growth inhibition
SK-MEL-5 = assay: Cytotoxicity against human SK-MEL-5 cells assessed as growth inhibition
SF-295 = assay: Cytotoxicity against human SF295 cells assessed as growth inhibition
HOP-92 = assay: Cytotoxicity against human HOP92 cells assessed as growth inhibition
[7] = Cytotoxicity against human UACC257 cells assessed as growth inhibition; conditions: UACC-257
SK-OV-3 = assay: Cytotoxicity against human SKOV3 cells assessed as growth inhibition
[8] = Cytotoxicity against human EKVX cells assessed as growth inhibition
[9] = Cytotoxicity against human UACC62 cells assessed as growth inhibition; conditions: UACC-62
HOP-62 = assay: Cytotoxicity against human HOP62 cells assessed as growth inhibition
SNB-75 = assay: Cytotoxicity against human SNB75 cells assessed as growth inhibition
DU-145 = assay: Cytotoxicity against human DU145 cells assessed as growth inhibition
MDA-MB-468 = assay: Cytotoxicity against human MDA-MB-468 cells assessed as growth inhibition
LOX IMVI = assay: Cytotoxicity against human LOXIMVI cells assessed as growth inhibition
SK-MEL-28 = assay: Cytotoxicity against human SK-MEL-28 cells assessed as growth inhibition
SN12C = assay: Cytotoxicity against human SN12C cells assessed as growth inhibition
RPMI-8226 = assay: Cytotoxicity against human RPMI8226 cells assessed as growth inhibition
A498 = assay: Cytotoxicity against human A498 cells assessed as growth inhibition
T47D = assay: Cytotoxicity against human T47D cells assessed as growth inhibition
[10] = Cytotoxicity against human HCT15 cells assessed as growth inhibition; conditions: HCT-15
MOLT-4 = assay: Cytotoxicity against human MOLT4 cells assessed as growth inhibition
HCC 2998 = assay: Cytotoxicity against human HCC2998 cells assessed as growth inhibition
PC-3 = assay: Cytotoxicity against human PC3 cells assessed as growth inhibition
NCI-H322M = assay: Cytotoxicity against human NCI-H322M cells assessed as growth inhibition
SF-268 = assay: Cytotoxicity against human SF268 cells assessed as growth inhibition
786-0 = assay: Cytotoxicity against human 786-0 cells assessed as growth inhibition
CAKI-1 = assay: Cytotoxicity against human CAKI-1 cells assessed as growth inhibition
K562 = assay: Cytotoxicity against human K562 cells assessed as growth inhibition
MCF7 = assay: Cytotoxicity against human MCF7 cells assessed as growth inhibition
SF-539 = assay: Cytotoxicity against human SF539 cells assessed as growth inhibition
NCI-H226 = assay: Cytotoxicity against human NCI-H226 cells assessed as growth inhibition
SK-MEL-2 = assay: Cytotoxicity against human SK-MEL-2 cells assessed as growth inhibition
NCI-H23 = assay: Cytotoxicity against human NCI-H23 cells assessed as growth inhibition
U-251 = assay: Cytotoxicity against human U251 cells assessed as growth inhibition
HL-60(TB) = assay: Cytotoxicity against human HL-60(TB) cells assessed as growth inhibition
IGROV-1 = assay: Cytotoxicity against human IGROV1 cells assessed as growth inhibition
A549 = assay: Cytotoxicity against human A549 cells assessed as growth inhibition
RXF 393 = assay: Cytotoxicity against human RXF393 cells assessed as growth inhibition
COLO 205 = assay: Cytotoxicity against human COLO205 cells assessed as growth inhibition
[11] = Cytotoxicity against human OVCAR3 cells assessed as growth inhibition; conditions: OVCAR-3
NCI-H460 = assay: Cytotoxicity against human NCI-H460 cells assessed as growth inhibition

`Cc1cc(/C=C2\CCc3c([nH]c4ccccc34)C2=O)cc(C)c1O` gave a GI50 (BT-549) of 530 nM, a GI50 [1] of 530 nM and a GI50 (TK-10) of 540 nM. It also gave a GI50 [2] of 450 nM, a GI50 [3] of 2350 nM and a GI50 (ACHN) of 770 nM. It also gave a GI50 (MDA-MB-231) of 1060 nM, a GI50 (SR) of 220 nM and a GI50 (HCT-116) of 440 nM. For the same compound, the GI50 (M14) was 340 nM, the GI50 (Malme-3M) was 380 nM and the GI50 (SW-620) was 410 nM. The GI50 (SNB-19) was 580 nM, the GI50 [4] was 310 nM and the GI50 (MDA-MB-435) was 120 nM. The GI50 (KM12) was 390 nM, the GI50 (NCI-H522) was 130 nM and the GI50 (CCRF-CEM) was 360 nM. The GI50 [5] was 1350 nM, the GI50 (HT-29) was 4320 nM and the GI50 [6] was 380 nM. It also gave a GI50 (SK-MEL-5) of 330 nM, a GI50 (SF-295) of 1880 nM and a GI50 (HOP-92) of 780 nM. For the same compound, the GI50 [7] was 370 nM, the GI50 (SK-OV-3) was 470 nM and the GI50 [8] was 3380 nM. It also gave a GI50 [9] of 420 nM, a GI50 (HOP-62) of 650 nM and a GI50 (SNB-75) of 290 nM. For the same compound, the GI50 (DU-145) was 540 nM, the GI50 (MDA-MB-468) was 290 nM and the GI50 (LOX IMVI) was 760 nM. It also gave a GI50 (SK-MEL-28) of 740 nM, a GI50 (SN12C) of 620 nM and a GI50 (RPMI-8226) of 470 nM. For the same compound, the GI50 (A498) was 1830 nM, the GI50 (T47D) was 740 nM and the GI50 [10] was 420 nM. It also gave a GI50 (MOLT-4) of 560 nM, a GI50 (HCC 2998) of 2210 nM and a GI50 (PC-3) of 1060 nM. For the same compound, the GI50 (NCI-H322M) was 530 nM, the GI50 (SF-268) was 730 nM and the GI50 (786-0) was 880 nM. It also gave a GI50 (CAKI-1) of 610 nM, a GI50 (K562) of 320 nM and a GI50 (MCF7) of 350 nM. It also gave a GI50 (SF-539) of 320 nM, a GI50 (NCI-H226) of 3290 nM and a GI50 (SK-MEL-2) of 320 nM. It also gave a GI50 (NCI-H23) of 650 nM, a GI50 (U-251) of 430 nM and a GI50 (HL-60(TB)) of 210 nM. It also gave a GI50 (IGROV-1) of 740 nM, a GI50 (A549) of 550 nM and a GI50 (RXF 393) of 520 nM. The GI50 (COLO 205) was 14200 nM, the GI50 [11] was 330 nM and the GI50 (NCI-H460) was 410 nM.
